# Measurements: patent publication US5008246A, “Novel peptides suppressing the function of the immune system, pharmaceutical compositions containing them and process for preparing same” (Richter Gedeon Vegyeszeti Gyar R. T., priority 1988, dated 1991)
# Where a SMILES comes first, the peptide text is derived from it. [ ]: non-standard residue; d: D form.
# Assays:
# [1] = system: contact dermatitis; assay: Inhibition of the contact dermatitis (oxazolone, method of Evans et al.); type: in vivo, male BALB/c (LATI) mice; settings: oxazolone-sensitized mice, 1.0 mg/kg i.p.; ear weight difference after 24 hours vs physiological saline control
# Description: These investigations were carried out on male BALB/c (LATI) mice with 20 to 22 g body-weight by using the method of Evans et al. [Br. J. Pharmacol. 43, 403 (1971)]. The abdominal side of the animals were depilated, then the naked abdominal skin of each animal was sensitized by 0.1 ml of the oxazolone solution of 2% in sunflower oil. After 1 week, the mice were i.p. treated with an 1.0 mg/kg dose of the test substance (dissolved in physiological saline solution), then the right ear of the animals was directly treated with 10 μl of an acetone solution containing 2% oxazolone while their left ear was treated with 10 μl of acetone. After 24 hours, their ears were cut off and weighed. The difference between the weight of treated and untreated ears of the animals was compared with the difference observed at the animals treated with the test substance and treated only with physiological saline solution, respectively. The difference in the ear weight was considered to be proportional to the extent of the contact dermatitis, while the value measured at the animals not treated with the test substance was taken as control, the dermatitis-diminishing effect of the test substances was obtained as expressed in percentage shown in Table 4.
# [2] = system: resting macrophages; assay: Effect on the phagocytating capacity of resting macrophages; type: in vivo, male NZB (OLAC-SzKB) mice; settings: 1 mg/kg s.c. daily for 4 days; count of phagocytated opsonized yeast cells by peritoneal macrophages vs untreated animals
# Description: These examinations were carried out on 6 months old male NZB (OLAC-SzKB) mice according to the method described in J. Immunopharmnacol. 4, 265 (1982-1983). The animals were treated daily with a 1 mg/kg subcutaneous (s.c.) dose of the test substances for 4 days. After bleeding the animals, their peritonea were washed with 8 ml of PBS buffer solution (pH 7.2) each containing 10 IU of heparin. The cell suspension washed out from the peritoneum was made free of the erythrocytes by shocking with distilled water, then washed 3 times with PBS buffer solution. The sedimentation between two washings was achieved by centrifuging at 1000 rpm for 5 minutes. Then, the concentration of each cell suspension was adjusted to 10^6 cell/ml and the suspension was settled for 30 minutes in a Boyden-chamber at 37° C. in an atmosphere containing 5% of carbon dioxide. Over the macrophages adhered to the glass wall, opsonized yeast was layered. After removing the non-phagocytated particles, those incorporated by the macrophages were counted in each cell. In Table 3, the percentage of decrease in the count of the phagocytated yeast cells is given in relation to the macrophages isolated from the untreated animals as control.
Compound,Inhibition of the contact dermatitis % [1] [%],Effect on the phagocytating capacity of resting macrophages % [2] [%]
"N=C(N)NCCC[C@H](N)C(=O)NCCCC[C@H](N)C(=O)N[C@@H](CC(=O)O)C(=O)O [Compound 12, Lys(Arg)--Asp] (H-Lys(Arg)-Asp-OH)",-16,-42
"N=C(N)NCCC[C@H](N)C(=O)NCCCC[C@H](N)C(=O)N[C@H](CC(=O)O)C(=O)O [Compound 13, Lys(Arg)--D--Asp] (H-Lys(Arg)-[dD]-OH)",,-50
